Laboratory results as given in patent publication US9809562B2, “NAT10 modulators for treating or preventing laminopathies, aging and cancer” (CAMBRIDGE ENTERPRISE LIMITED, priority 2014, dated 2017).
Where a name gives a salt, the structure may show the parent alone. Read-outs that look alike come from different tables or passages of the source.

Assays:
[1] = tested on: cancer cell lines displaying reduced Lamin A/C expression; test: Nuclear morphology of cancer cell lines with reduced Lamin A/C expression (DAPI); format: cell-based, human
Source text: FIG. 2: Small molecule Compound 2 rescues nuclear shape defects in various Lamin A/C depleted cells. A) and B) Nuclear shape visualization by DAPI staining of HeLa (A) or RPE-1 (B) cells depleted for Lamin A/C (siLMNA) and treated with various KATi. Scale bars: 50 μm. C) and D) Cell Profiler quantification of nuclear circularity of HeLa (C) or RPE-1 (D) cells from DAPI staining as shown in A) and B) (means of three independent experiments with n>252±s.d). E) Cell cycle profile analysed by flow cytometry. PI: propidium iodide. F) Analysis of Lamin A/C expression levels in indicated cancer cell lines. Bottom panel: Image J quantification of Lamin A/C expression in cancer cells relative to normal RPE-1 cells. G) Representative pictures of DAPI staining showing nuclear shape improvement in low Lamin A/C expressing cancer cells after treatment with Compound 2. Scale bars: 20 μm.
(§1) U2OS and SaOS-2 osteosarcoma cells, HeLa cervical cancer cells, A431 melanoma cells, NCI-SNU5 gastric cancer cells, MRC-5 lung fibroblast cells and Werner syndrome patient-derived SV40 fibroblast cells were grown in Dulbecco's modified Eagle medium (DMEM, Sigma-Aldrich) supplemented with 10% fetal bovine serum (BioSera), 2 mM L-glutamine, 100 U per ml penicillin, 100 μg ml^−1 streptomycin. […] Cells were analysed 48 to 72 hours after transfection.

[2] = tested on: GFP-H2B expressing U2OS cells transfected with siLMNA; test: Live imaging of GFP-H2B cells; format: cell-based, human; settings: Compound 2 at 50 μM, independently of mitosis
Method: U2OS cells were transfected with siLMNA for 48 hours before addition of (Compound 2) at 50 μM. Pictures were acquired every 15 minutes for 16 hours in z-stack of 0.2 μm interval with a Deltavision PersonalDV (Applied Precision, 512×512 CoolSNAP HQ2 camera) equipped with a 100× UPlanSApo/1.40 oil objective (Olympus) and controlled with SoftWoRx software (Applied Precision). Movies were then assembled from pictures with ImageJ software.

[3] = Pharmacokinetics assay of Remodelin in mice; format: in vivo; settings: ICR mice; for half-life: read-out: half-life (T½) (converted)
Method: FIG. 17: Pharmacokinetics assay of Remodelin in mice. A) The pharmacokinetics of Remodelin was evaluated in ICR mice following IV at 1 mg/kg and PO at 5 mg/kg dose level. […] B) Details of the results obtained in the curves shown in A).

[4] = tested on: non-laminopathic Werner syndrome cells; test: Misshapen nuclei in Werner syndrome cells; format: cell-based, human
Source text: FIG. 10: Remodelin rescues nuclear shape of aged MRC5 cells but not WS cells in a dose dependent manner. A) Misshapen nuclei observed by DAPI staining in MRC5 aged cells in culture, at population doubling 44 (PD44) were rescued by Remodelin. B) Quantification of misshapen nuclei after increasing concentrations of Remodelin (mean of three independent experiments±s.e.m.). C) DAPI staining of non-laminopathic Werner Syndrome cells (WS) showing no nuclear shape improvement upon Remodelin treatment. D) Cell Profiler quantification of misshapen nuclei (mean of three independent experiments±s.d. n>273). Scale bars: 50 μm.
as §1, with “streptomycin. Normal skin primary fibroblasts GM03440 and Hutchinson Gilford Progeria Syndrome (HGPS) skin primary fibroblasts AG11498 and AG06297 were purchased from Coriell Cell Repositories and used between passage number 9-12 and 20-23 respectively. Cells were grown in DMEM supplemented as above.” for “streptomycin.”

[5] = tested on: siLMNA cells and HGPS cells; test: Microtubules regrowth assay; format: cell-based, human; settings: t=15 minutes after cold depolymerization, 5 to 10 μM Remodelin 16 hours
Method: 48 hours after siRNA transfections, microtubules were depolymerized by cold treatment at 4° C. for 1 hour in cells pre-treated or not with 5 to 10 μM Remodelin for 16 hours. Cold medium was replaced by pre-warmed medium and cells were incubated at 37° C. for 5 or 15 minutes to allow microtubules nucleation and anchorage respectively. Cells were fixed in PFA and stained with anti α-Tubulin antibody as described in the immunofluorescence procedure.

[6] = tested on: cells (sub-cellular distribution); test: Fluorescent labelling of clickable molecules (sub-cellular distribution); format: cell-based; settings: 2 hours pre-incubation, Alexa fluor 488 Azide click
Method: Cells were pre-incubated with clickable molecules Compound 3 or Reference Compound A (1-Chloro-4-ethynilbenzene, purchased from Sigma-Aldrich) for 2 hours before being fixed and permeabilised as described above. Click reaction was prepared using Invitrogen Click-iT reagents with Alexa fluor 488 Azide and incubated with fixed cells for 1 hour in the dark. In case of co-labelling with another protein, the click reaction was performed before the antibody incubations.

NAT10 = molecular target: T1, NAT10 (Homo sapiens, UniProt Q9H0A0); test: Clickable small molecule pull-down from live cells, western blotting; format: binding; settings: pre-incubated in live U2OS cells, biotin linker, streptavidin beads
T1 construct: endogenous in cells; host or cells: U2OS
T1 sequence (Q9H0A0 whole entry): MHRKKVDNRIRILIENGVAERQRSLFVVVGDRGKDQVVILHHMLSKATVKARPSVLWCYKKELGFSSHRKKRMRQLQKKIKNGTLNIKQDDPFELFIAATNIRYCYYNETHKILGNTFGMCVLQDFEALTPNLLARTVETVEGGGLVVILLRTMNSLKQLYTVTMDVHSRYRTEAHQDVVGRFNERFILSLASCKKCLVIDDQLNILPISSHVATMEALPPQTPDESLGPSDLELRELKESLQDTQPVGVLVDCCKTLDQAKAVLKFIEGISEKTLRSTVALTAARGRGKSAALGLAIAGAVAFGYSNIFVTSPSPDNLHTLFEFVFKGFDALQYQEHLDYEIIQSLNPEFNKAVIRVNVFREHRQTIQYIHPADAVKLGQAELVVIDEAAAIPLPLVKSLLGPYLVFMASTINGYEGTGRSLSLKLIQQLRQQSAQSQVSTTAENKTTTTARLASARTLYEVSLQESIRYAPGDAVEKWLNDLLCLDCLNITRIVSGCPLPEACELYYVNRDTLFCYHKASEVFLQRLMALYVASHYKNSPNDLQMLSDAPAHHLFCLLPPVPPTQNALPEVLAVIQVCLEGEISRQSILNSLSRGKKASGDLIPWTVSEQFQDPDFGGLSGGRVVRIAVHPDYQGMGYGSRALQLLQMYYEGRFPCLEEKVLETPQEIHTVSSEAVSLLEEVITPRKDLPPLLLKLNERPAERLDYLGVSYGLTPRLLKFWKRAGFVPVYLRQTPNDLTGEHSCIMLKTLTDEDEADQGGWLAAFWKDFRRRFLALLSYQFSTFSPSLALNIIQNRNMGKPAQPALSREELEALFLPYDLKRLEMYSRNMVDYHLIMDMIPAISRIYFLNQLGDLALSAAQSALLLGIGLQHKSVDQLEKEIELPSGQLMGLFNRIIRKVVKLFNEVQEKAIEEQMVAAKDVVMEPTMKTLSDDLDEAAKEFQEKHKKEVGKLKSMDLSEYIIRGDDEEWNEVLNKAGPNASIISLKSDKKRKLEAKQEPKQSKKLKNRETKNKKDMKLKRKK
Method: Biotinylated Compound 3 and PEG4 biotinylated Compound A were generated in situ from Compounds 2 and 3, pre-incubated in live cells for 2 h prior to adding commercially available PEG4 carboxamide-6-azidohexanyl biotin and click reagents in cell extracts (used in click-pull-down and western blotting validation).
Click reaction reagents were added to the cell lysates as follows: 10 μM biotin azide (PEG4 carboxamide-6-Azidohexanyl Biotin, Life Sciences), 10 mM sodium ascorbate (Sigma-Aldrich), 2 mM CuSO4 (Life Sciences). Click reactions were incubated in the dark for 1 hour at 4° C. with rotation. Streptavidin beads were then incubated for 1 hour and samples were eluted and loaded on a gel as described above, before immunoblotting.

Clc1ccc(-c2csc(NN=C3CCCC3)n2)cc1 [Compound 2, 4-(4-Chlorophenyl)-2-(2-cyclopentylidenehydrazinyl)thiazole Hydrochloride Salt]
nuclear morphology of cancer cell lines [1]: improved the nuclear morphology of several cancer cell lines | time to complete nuclear shape rescue [2]: ≤ 12 h

N#Cc1ccc(-c2csc(NN=C3CCCC3)n2)cc1 [Compound 1, 4-(4-Cyanophenyl)-2-(2-cyclopentylidenehydrazinyl)thiazole]
Oral exposure (AUC0-∞) ([3]; PO 5 mg/kg): 259 ng·h/mL | clearance ([3]; mouse, plasma, IV 1 mg/kg): 139 mL/min/kg | half-life ([3]; mouse, plasma, IV 1 mg/kg): 54.9 min | Tmax ([3]; mouse, plasma, PO 5 mg/kg): 15 min | bioavailability ([3]; mouse, plasma, PO 5 mg/kg vs IV 1 mg/kg): 43.5% | half-life ([3]; mouse, plasma, PO 5 mg/kg): 109 min | Cmax ([3]; mouse, plasma, PO 5 mg/kg, read-out: maximum plasma concentration (Cmax)): 409 ng/mL | misshapen nuclei of Werner syndrome cells [4]: no detectable effect on misshapen nuclei | anchorage of microtubules to centrosomes [5]: anchorage of microtubules to centrosomes was clearly affected

C#CCN(N=C1CCCC1)c1nc(-c2ccc(Cl)cc2)cs1 [Compound 3, 4-(4-Chlorophenyl)-2-(2-cyclopentylidene-1-(prop-2-yn-1-yl)hydrazinyl)thiazole]
sub-cellular distribution of fluorescently labelled molecule [6]: predominant accumulation of Compound 3 in nucleoli | retrieval of NAT10 in click pull-down (NAT10): specifically retrieved NAT10
